Patent publication US5104875A, “Combination preparations containing rifampicin and thioacetazon” (priority 1989, dated 1992)
Where two headings read alike, the source gives them in different places.

Tests used:
[1] = tested on: mycobacteria of the avium complex, patient Sa; experiment: MIC alone and in combination; assay type: cell-based; details: Homo sapiens, single
[2] = tested on: mycobacteria of the avium complex, patient Me; experiment: MIC alone and in combination; assay type: cell-based; details: Homo sapiens, single
[3] = tested on: mycobacteria of the avium complex, patient Ku; experiment: MIC alone and in combination; assay type: cell-based; details: Homo sapiens, single
[4] = tested on: mycobacteria of the avium complex, patient Wi; experiment: MIC alone and in combination; assay type: cell-based; details: Homo sapiens, single
[5] = tested on: mycobacteria of the avium complex, patient Vo; experiment: MIC alone and in combination; assay type: cell-based; details: Homo sapiens, single
[6] = tested on: mycobacteria of the avium complex, patient Bi; experiment: MIC alone and in combination; assay type: cell-based; details: Homo sapiens, single
[7] = tested on: mycobacteria of the avium complex, patient Ma; experiment: MIC alone and in combination; assay type: cell-based; details: Homo sapiens, single
[8] = tested on: mycobacteria of the avium complex, patient Ka-B; experiment: MIC alone and in combination; assay type: cell-based; details: Homo sapiens, single
[9] = tested on: mycobacteria of the avium complex, patient two; experiment: MIC alone and in combination; assay type: cell-based; details: Homo sapiens, single
[10] = tested on: mycobacteria of the avium complex, patient one; experiment: MIC alone and in combination; assay type: cell-based; details: Homo sapiens, single
M.tuberculosis H37Rv = experiment: chess-board titration, growth inhibition; assay type: cell-based
[11] = tested on: RMP-resistant patient strain M. avium BK; experiment: chess-board titration, growth inhibition; assay type: cell-based;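 further: +++ means growth as in control and minus means complete inhibition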
[12] = tested on: mycobacteria of the MOTT-complex; experiment: effect when administered alone; details: administered alone (cf. Example 2, Table 2 and Table 5)
M. avium 227 = experiment: MIC of the individual substances
Method: (§1) The bacteria were cultivated in a liquid nutrient medium according to Lockemann (cf. "Nachweisverfahren fur Mykobakterien aus Untersuchungsmaterial, III, Nahrbodenrezepte zur Kultur von Tuberkulosebakterien, 1978, Publisher: Deutsches Zentralkomitee zur Bekampfung der Tuberkulose, Poppenhusenstrasse 14c, 2000 Hamburg 60) enriched with 0.5 % albumin and 1 % human serum. In each case 5×10^-3 to 5 ×10^-5 mg, referred to the weight in wet state, of the mycobacteria strains were incubated in 2 ml of the culture liquid at 37° C. with graded concentrations of RMP and Thz. Readings were taken from the culture tubes after 8 to 15 days.
(§2) The MIC is the concentration of the growth inhibitor in μg/ml, at which no multiplication of the seeded cells can be established.

M. avium Ro = experiment: MIC of the individual substances; details: for MIC: single substance
Method: as §1, §2

M. avium Dan = experiment: MIC of the individual substances; details: for MIC: single substance
Method: as §1, §2

M. avium Bi = experiment: MIC of the individual substances; details: single substance
Method: as §1, §2

mycobacteria = details: administered alone in acceptable doses; cited from earlier work
[13] = higher doses; cited from earlier work
[14] = Mycobacterium avium, 227, read-out: average inhibiting concentration alone

Structure (SMILES): CC[C@@H](CO)NCCN[C@@H](CC)CO [EMB, ethambutol]
- MIC [1]: > 32 µg/mL
- MIC [2]: 8 µg/mL
- MIC [3]: > 32 µg/mL
- MIC [4]: > 32 µg/mL
- MIC [5]: 4 to 8 µg/mL
- MIC [6]: 4 µg/mL
- MIC [7]: 32 µg/mL
- MIC [8]: > 32 µg/mL
- MIC [9]: 16 to 32 µg/mL
- MIC [10]: > 32 µg/mL

Structure (SMILES): NNC(=O)c1ccncc1 [INH, isonicotinic acid hydrazide]
- MIC [1]: 32 µg/mL
- MIC [2]: 16 µg/mL
- MIC [3]: 4 µg/mL
- MIC [4]: 16 µg/mL
- MIC [5]: 8 µg/mL
- MIC [6]: > 32 µg/mL
- MIC [7]: > 32 µg/mL
- MIC [8]: 32 µg/mL
- MIC [9]: 16 µg/mL
- MIC [10]: 4 µg/mL

Structure (SMILES): CO[C@H]1/C=C/O[C@@]2(C)Oc3c(C)c(O)c4c(O)c(c(/C=N/N5CCN(C)CC5)c(O)c4c3C2=O)NC(=O)/C(C)=C\C=C\[C@H](C)[C@H](O)[C@@H](C)[C@@H](O)[C@@H](C)[C@H](OC(C)=O)[C@@H]1C [RMP, rifampicin]
- growth inhibition (M.tuberculosis H37Rv; Rifampicin .006 ug/ml, Thioacetazon 0): +++
- growth inhibition (M.tuberculosis H37Rv; Rifampicin .012 ug/ml, Thioacetazon 0): +++
- growth inhibition (M.tuberculosis H37Rv; Rifampicin .018 ug/ml, Thioacetazon 0): +++
- growth inhibition (M.tuberculosis H37Rv; Rifampicin .024 ug/ml, Thioacetazon 0): +++
- growth inhibition (M.tuberculosis H37Rv; Rifampicin .030 ug/ml, Thioacetazon 0): ++
- growth inhibition (M.tuberculosis H37Rv; Rifampicin .036 ug/ml, Thioacetazon 0): +
- growth inhibition (M.tuberculosis H37Rv; Rifampicin .042 ug/ml, Thioacetazon 0): +
- growth inhibition (M.tuberculosis H37Rv; Rifampicin .048 ug/ml, Thioacetazon 0): +
- growth inhibition (M.tuberculosis H37Rv; Rifampicin .054 ug/ml, Thioacetazon 0): -
- growth inhibition (M.tuberculosis H37Rv; Rifampicin .06 ug/ml, Thioacetazon 0): -
- growth inhibition ([11]; Rifampicin 0.8 ug/ml, Thioacetazon 0.000): +++
- growth inhibition ([11]; Rifampicin 1.6 ug/ml, Thioacetazon 0.000): +++
- growth inhibition ([11]; Rifampicin 2.4 ug/ml, Thioacetazon 0.000): ++
- growth inhibition ([11]; Rifampicin 3.2 ug/ml, Thioacetazon 0.000): ++
- growth inhibition ([11]; Rifampicin 4 ug/ml, Thioacetazon 0.000): -
- growth inhibition ([11]; Rifampicin 4.8 ug/ml, Thioacetazon 0.000): -
- growth inhibition ([11]; Rifampicin 5.4 ug/ml, Thioacetazon 0.000): -
- growth inhibition ([11]; Rifampicin 6.4 ug/ml, Thioacetazon 0.000): -
- growth inhibition ([11]; Rifampicin 7.2 ug/ml, Thioacetazon 0.000): -
- growth inhibition ([11]; Rifampicin 8 ug/ml, Thioacetazon 0.000): -
- MIC [1]: 8 µg/mL
- MIC [2]: 16 µg/mL
- MIC [3]: 32 µg/mL
- MIC [4]: > 32 µg/mL
- MIC [5]: 16 µg/mL
- MIC [6]: 4 µg/mL
- MIC [7]: > 32 µg/mL
- MIC [8]: > 32 µg/mL
- MIC [9]: 32 µg/mL
- MIC [10]: > 32 µg/mL
- effect against the mycobacteria of the MOTT-complex [12]: no effect or only a slight effect
- MIC (M. avium 227; M. avium 227, single substance): 8 µg/mL
- MIC (M. avium 227; [14]): 8 µg/mL
- resistance (M. avium Ro): completely resistant
- MIC (M. avium Ro): > 32 µg/mL
- MIC (M. avium Dan): 16 µg/mL
- MIC (M. avium Bi): 3 µg/mL

Structure (SMILES): CC(=O)Nc1ccc(C=NNC(N)=S)cc1 [Thz, thioacetazon]
- growth inhibition (M.tuberculosis H37Rv; Thioacetazon .05 ug/ml, Rifampicin 0): +++
- growth inhibition (M.tuberculosis H37Rv; Thioacetazon .10 ug/ml, Rifampicin 0): +++
- growth inhibition (M.tuberculosis H37Rv; Thioacetazon .15 ug/ml, Rifampicin 0): +++
- growth inhibition (M.tuberculosis H37Rv; Thioacetazon .20 ug/ml, Rifampicin 0): +++
- growth inhibition (M.tuberculosis H37Rv; Thioacetazon .25 ug/ml, Rifampicin 0): +++
- growth inhibition (M.tuberculosis H37Rv; Thioacetazon .30 ug/ml, Rifampicin 0): +++
- growth inhibition (M.tuberculosis H37Rv; Thioacetazon .35 ug/ml, Rifampicin 0): +++
- growth inhibition (M.tuberculosis H37Rv; Thioacetazon .40 ug/ml, Rifampicin 0): + ++
- growth inhibition (M.tuberculosis H37Rv; Thioacetazon .45 ug/ml, Rifampicin 0): +++
- growth inhibition (M.tuberculosis H37Rv; Thioacetazon .50 ug/ml, Rifampicin 0): +++
- growth inhibition ([11]; Thioacetazon 0.8 ug/ml, Rifampicin 0): +++
- growth inhibition ([11]; Thioacetazon 1.6 ug/ml, Rifampicin 0): +++
- growth inhibition ([11]; Thioacetazon 2.4 ug/ml, Rifampicin 0): ++
- growth inhibition ([11]; Thioacetazon 3.2 ug/ml, Rifampicin 0): ++
- growth inhibition ([11]; Thioacetazon 4 ug/ml, Rifampicin 0): ++
- growth inhibition ([11]; Thioacetazon 4.8 ug/ml, Rifampicin 0): ++
- growth inhibition ([11]; Thioacetazon 5.6 ug/ml, Rifampicin 0): +
- growth inhibition ([11]; Thioacetazon 6.4 ug/ml, Rifampicin 0): +
- growth inhibition ([11]; Thioacetazon 7.2 ug/ml, Rifampicin 0): +
- growth inhibition ([11]; Thioacetazon 8 ug/ml, Rifampicin 0): +
- MIC [1]: 32 µg/mL
- MIC [2]: 32 µg/mL
- MIC [3]: 32 µg/mL
- MIC [4]: 32 µg/mL
- MIC [5]: 32 µg/mL
- MIC [6]: > 32 µg/mL
- MIC [7]: > 32 µg/mL
- MIC [8]: > 32 µg/mL
- MIC [9]: 32 µg/mL
- MIC [10]: 16 µg/mL
- anti-mycobacterial effect (mycobacteria): only of weak effect
- undesirable side-effects [13]: can lead to undesirable side-effects in higher doses
- MIC (M. avium 227; M. avium 227, single substance): 32 µg/mL
- MIC (M. avium 227; [14]): 32 µg/mL
- resistance (M. avium Ro): completely resistant
- MIC (M. avium Ro): > 32 µg/mL
- resistance (M. avium Dan): resistant
- MIC (M. avium Dan): > 32 µg/mL
- MIC (M. avium Bi): 3 µg/mL
